The results in this text go back to patent US11758905B2, “Amphotericin B and β-1,3-glucanase loaded bi-functional nano-system with both targets, preparation method and application thereof” (QINGDAO AGRICULTURAL UNIVERSITY, priority 2021, dated 2023).

Molecules are shown by their SMILES.

Holding throughout (assay type): cell-based
For assay [1], the system named is Candida albicans BF 1. Nature of the assay: Minimum inhibitory concentration determination. Particulars: clinical isolate BF 1; 24 h, 37° C. Here is the method: (§1) Fungus strain: Candida albicans DAY185; 3 clinical isolates of Candida albicans, obtained from Medical University of Vienna, named as Candida albicans BF 1, BF 2 and BF 3.
(§2) 100 μl of Candida albicans (1×10^6 CFU/mL) is added to a 96-pore plate containing different concentrations (2, 1, 0.5, 0.25, 0.125, 0.0625 or 0 μg/mL) of free AmpB and CSNP-AmpB-Gls. The micropore plate is rotated at a rotation speed of 150 rpm and incubated at 37° C. for 24 h. The minimum inhibitory concentration is defined as the minimum AmpB concentration at which visible growth cannot be detected.

The subject of assay [2] is Candida albicans BF 2. Nature of the assay: Minimum inhibitory concentration determination. To be noted: clinical isolate BF 2; 24 h, 37° C. Here is the method: as §1, §2
The test system of assay [3] is Candida albicans BF 3. Briefly: Minimum inhibitory concentration determination. Particulars: clinical isolate BF 3; 24 h, 37° C. As to the method:
as §1, §2

The test system of assay [4] is Candida albicans DAY185. Nature of the assay: Minimum inhibitory concentration determination. To be noted: strain DAY 185; 24 h, 37° C.; minimum AmpB concentration without visible growth. As to the method: as §1, §2
The test system of assay [5] is Candida albicans biofilm on silica gel. Briefly: Influence on medical silica gel surface biofilm (CLSM viable/dead staining, SEM). As to the method: The biofilm on a silica gel is treated by free AmpB and NPs by following the method described above. The biofilm structure is studied through a scanning electron microscope. The biofilm survivability is observed with CLSM, and viable/dead fungus staining kit is used for staining, […]

`C[C@@H]1[C@H](O)[C@@H](C)/C=C/C=C/C=C/C=C/C=C/C=C/C=C/[C@H](O[C@@H]2O[C@H](C)[C@@H](O)[C@H](N)[C@@H]2O)C[C@@H]2O[C@](O)(C[C@@H](O)C[C@@H](O)[C@H](O)CC[C@@H](O)C[C@@H](O)CC(=O)O[C@H]1C)C[C@H](O)[C@H]2C(=O)O` [AmpB, amphotericin B]: the “AmpB MIC” value amounted to 2 µg/mL in assay [1], 2 µg/mL in assay [2], 4 µg/mL in assay [3] and 1 µg/mL in assay [4]. Also, the “biofilm structure change by SEM” value in assay [5] (silica gel, FIG. 6) is recorded as “significantly reduces fungus colonization”. Moreover, in assay [5] (viable/dead staining, FIG. 5), the “cell viability of the biofilm on silica gel by CLSM” value is reported as “green (viable cells) is significantly reduced”.
